Reference: patent publication US9561289B2, “Peptides for inhibiting tumor growth” (OSPEDALE SAN RAFFAELE SRL, priority 2012, dated 2017)
Marks after values point to notes of the source that are not given here. Where a SMILES comes first, the peptide text is derived from it. Bridges are numbered along the chain shown (N, C = ends).

Experiments:
WEHI-164 fibrosarcoma = assay: Tumor growth in WEHI-164 fibrosarcoma-bearing mice; format: in vivo; details: WEHI-164 model, i.p., biweekly, 0.032 to 20 μg
αvβ3 = target: T1, αvβ3 (Homo sapiens, UniProt P05106+P06756); assay: Competitive integrin binding assay (isoDGR/STV-HRP) on αvβ3-coated plates; details: number in parenthesis
T1 construct: purchased Immunological Sciences (Rome, Italy)
Method: (§1) A conjugate consisting of biotinylated acetyl-Ciso[…] (SEQ ID NO:36) peptide complexed with streptavidin-peroxidase conjugate (isoDGR/STV-HRP) was first prepared as described previously. […] Each mixture was then added to microtiter plates coated with integrins (αvβ3, αvβ5, αvβ6, […], or α5β1) and incubated for 2 h at room temperature. After washing, each well was incubated with 70 μl of chromogenic solution (o-phenylenediamine dihydrochloride) for 20 min, at room temperature. The chromogenic reaction was stopped by adding an equal volume of 1 N sulfuric acid. The absorbance at 490 nm was then measured using a microtiter plate reader.
(§2) The binding affinity and selectivity of each peptide for different integrins were then analyzed by competitive binding assay, using αvβ3-, αvβ5-, αvβ6-, αvβ8- and α5β1-coated plates and isoDGR/STV-HRP, an ac-isoDGR-2C/peroxidase complex, as competitor.

α5β1 = target: T2, α5β1 (Homo sapiens, UniProt P05556+P08648); assay: Competitive integrin binding assay (isoDGR/STV-HRP) on α5β1-coated plates; details: number in parenthesis
T2 construct: purchased Immunological Sciences (Rome, Italy)
Method: as §1, §2

[1] = tested on: EA.hy926 endothelial cells; assay: Endothelial cell adhesion to vitronectin-coated plates; format: cell-based, human; details: EA.hy926, substance added to supernatant
Method: Endothelial cell (EA.hy926) adhesion to microtiter plates coated with human vitronectin was carried out as described ([25]). IsoDGR#1 and isoDGR#3 were added to the supernatant during cell adhesion. […] Mean±S.E (n=3).
Cell adhesion was quantified by spectrophotometric measurement (A570 nm).

αvβ5 = target: T3, αvβ5 (Homo sapiens, UniProt P06756+P18084); assay: Competitive integrin binding assay (isoDGR/STV-HRP) on αvβ5-coated plates; details: number in parenthesis
T3 construct: purchased Immunological Sciences (Rome, Italy)
Method: as §1, §2

αvβ6 = target: T4, αvβ6 (Homo sapiens, UniProt P06756+P18564); assay: Competitive integrin binding assay (isoDGR/STV-HRP) on αvβ6-coated plates; details: number in parenthesis
T4 construct: purchased R&D System (Minneapolis, Minn.)
Method: as §1, §2

αvβ8 = target: T5, αvβ8 (Homo sapiens, UniProt P06756+P26012); assay: Competitive integrin binding assay (isoDGR/STV-HRP) on αvβ8-coated plates; details: number in parenthesis
T5 construct: purchased R&D System (Minneapolis, Minn.)
Method: as §1, §2

[2] = tested on: CD13-negative MCF-7 cells; assay: Binding of NGR peptide/Qdot to CD13-negative cells (fluorescence microscopy); format: cell-based, human
Method: (§3) (B) Binding of head-to-tail cyclized NGR peptides and disulphide constrained NGR peptide (ac-NGR-2C-TNF1-11, corresponding to acetylated-[…]) (SEQ ID NO:33) conjugated to fluorescent nanoparticles (Qdot) to HT-1080, human umbilical vein cells (HUVECs), and MCF-7 cells. NGR#/Qdots were prepared using the sulfo-SMCC linker (black, bars), whereas ac-NGR-2C-TNF1-11/Qdot were prepared using the BS3 linker (white, bars). Linker-Qdot, i.e. lacking the peptide, are indicated as None. Quantification of staining intensity was performed by using the Photoshop software. Six images were analyzed for each condition. Representative images are shown. Magnification, ×400; scale bar, 20 μm; red, Qdot; blue, nuclear staining with DAPI.
(§4) The binding of NGR-peptide/Qdot conjugates to HT-1080, HUVECs and MCF-7, was analyzed as follows: the cells were grown in chamber slides (3-4×10^4 cell/well, plated 48 h before the experiment). After washing with DMEM containing 1% fetal bovine serum (binding buffer), each NGR-peptide/Qdot conjugate (3-10 nM, in binding buffer) was added to the cells and left to incubate for 2 h at 37° C. in 5% CO2. […] The cells were then analyzed using an Axioscop 40 FL microscope (Carl Zeiss, Germany) equipped with AxioCam MRc5 digital camera and Axiovison software (Carl Zeiss).

[3] = tested on: CD13-positive (HT-1080 and HUVECs) cells; assay: Binding of NGR peptide/Qdot to CD13-positive cells (fluorescence microscopy); format: cell-based, human; details: 2 h at 37° C.
Method: as §3, §4

Compound	tumor growth (WEHI-164 fibrosarcoma)	ratio of integrin Ki/αvβ3 Ki (αvβ3) (αvβ3)	ratio of integrin Ki/αvβ3 Ki (α5β1) (α5β1)	inhibition of endothelial cell adhesion to vitronectin [1]	ratio of integrin Ki/αvβ3 Ki (αvβ5) (αvβ5)	ratio of integrin Ki/αvβ3 Ki (αvβ6) (αvβ6)	ratio of integrin Ki/αvβ3 Ki (αvβ8) (αvβ8)	binding to CD13-negative cells [2]	binding to CD13-positive cells [3]
CC(C)[C@H]1C(=O)N[C@@H](CCCNC(=N)N)C(=O)NCC(=O)N[C@@H](CC(=O)O)C(=O)N[C@H](Cc2ccccc2)C(=O)N1C [Cilengitide, cyclo(arginylglycyl-aspartyl-D-phenylalanyl-N-methyl-valyl)]	can delay the growth	–	–	–	–	–	–	–	–
N=C(N)NCCC[C@@H]1NC(=O)CNC(=O)C[C@@H](C(=O)O)NC(=O)CNC(=O)[C@H](CS)NC(=O)CNC1=O [isoDGR#1, c(CGisoDGRG)] (GRGCGD-OH; lactam N-6)	–	(1)^c	(3)	could efficiently inhibit endothelial cell adhesion	(2)	(14)	–	–	–
N=C(N)NCCC[C@@H]1NC(=O)CNC(=O)C[C@@H](C(=O)O)NC(=O)[C@H](CS)NC(=O)CNC(=O)CNC1=O [isoDGR#3, c(CisoDGRGG)] (GRGGCD-OH; lactam N-6)	–	(1)	(0.5)	could efficiently inhibit endothelial cell adhesion	(1)	(1.3)	(1.2)	–	–
NGR#3-Qdot: NGR#3 coupled to sulfo-SMCC-activated Qdot fluorescent nanoparticles (cyclo(CNGRGG); not fully specified (residue 1); also: linker joined to Qdot605 nanoparticle)	–	–	–	–	–	–	–	failed to bind	could bind CD13-positive cells
